Data reported in patent US20140235533A1, “DIHYDROFURAN DERIVATIVES AS INSECTICIDAL COMPOUNDS” (SYNGENTA PARTICIPATIONS AG, priority 2011, published 2014).

Assays:
Format in all cases: in vivo
Heliothis virescens = Heliothis virescens (tobacco budworm) egg test on artificial diet; conditions: 96 h, 200 ppm (concentration in well 18 ppm), eggs 0-24 h old on artificial diet, egg mortality, larval mortality, growth regulation after 4 days
Procedure: Heliothis virescens (Tobacco Budworm):
Eggs (0-24 h old) were placed in 24-well microtiter plate on artificial diet and treated with test solutions at an application rate of 200 ppm (concentration in well 18 ppm) by pipetting. After an incubation period of 4 days, samples were checked for egg mortality, larval mortality, and growth regulation. The following compound gave at least 80% control of Heliothis virescens: A1, A2, A03, A05, A06, A07, A08, A09, A10, A11, A12, A13, A14, A15, A16, A17, A18, A19, A20, A21, A22, A25, A26, A27, A31, A32, A34, A37, A39, A40, A42, A44, A45, A46, A47, A48, A49, A50, A51, A52, A53, B1**.

Tetranychus urticae = Tetranychus urticae (two-spotted spider mite) bean leaf disc spray test; conditions: foliar, 192 h, 200 ppm spray on bean leaf discs, mite populations of mixed ages, egg, larval and adult mortality 8 days later
Excerpt: Tetranychus urticae (Two-Spotted Spider Mite): Bean leaf discs on agar in 24-well microtiter plates were sprayed with test solutions at an application rate of 200 ppm. After drying, the leaf discs are infested with mite populations of mixed ages. 8 days later, discs are checked for egg mortality, larval mortality, and adult mortality.

Plutella xylostella = Plutella xylostella (diamond back moth) artificial diet MTP test; conditions: 144 h, 200 ppm (concentration in well 18 ppm), L2 larvae, larval mortality and growth regulation after 6 days
Procedure: (§1) Plutella xylostella (Diamond Back Moth): 24-well microtiter plate (MTP) with artificial diet was treated with test solutions at an application rate of 200 ppm (concentration in well 18 ppm) by pipetting. After drying, the MTPs were infested with L2 larvae (7-12 per well). After an incubation period of 6 days, samples were checked for larval mortality and growth regulation.

Spodoptera littoralis = Spodoptera littoralis (Egyptian cotton leafworm) cotton leaf disc spray test; conditions: foliar, 72 h, 200 ppm spray on cotton leaf discs, 5 L1 larvae, mortality, feeding behavior, growth regulation 3 days after treatment
Excerpt: Spodoptera littoralis (Egyptian Cotton Leafworm) Cotton leaf discs were placed on agar in a 24-well microtiter plate and sprayed with test solutions at an application rate of 200 ppm. After drying, the leaf discs were infested with 5 L1 larvae. The samples were checked for mortality, feeding behavior, and growth regulation 3 days after treatment (DAT).

Diabrotica balteata = Diabrotica balteata (corn root worm) artificial diet MTP test; conditions: 120 h, 200 ppm (concentration in well 18 ppm), L2 larvae, larval mortality and growth regulation after 5 days
Procedure: as §1, with “Diabrotica balteata (Corn Root Worm): A” for “Plutella xylostella (Diamond Back Moth):”, “(6-10” for “(7-12”, “5” for “6”

Measured: pest or weed control at 200 ppm

C[C@H](NC(=O)C1CC1)c1ccc(C2=COC(c3cc(Cl)c(Cl)c(Cl)c3)(C(F)(F)F)C2)cc1 (stereo partly drawn) [B1*, N-[(1S)-1-[4-[2-(3,4,5-trichlorophenyl)-2-(trifluoromethyl)-3H-furan-4-yl]phenyl]ethyl]cyclopropanecarboxamide]
≥ 80%: all assays above

O=C(NCc1ccc(C2=COC(c3cc(Cl)cc(Cl)c3)(C(F)(F)F)C2)cc1Cl)C1CCCO1 (stereo not shown) [Compound A07, N-[[2-chloro-4-[2-(3,5-dichlorophenyl)-2-(trifluoromethyl)-3H-furan-4-yl]phenyl]methyl]tetrahydrofuran-2-carboxamide]
≥ 80%: all assays above

O=C(COCc1ccccc1)NCc1ccc(C2=COC(c3cc(Cl)cc(Cl)c3)(C(F)(F)F)C2)cc1Cl (stereo not shown) [Compound A08, 2-benzyloxy-N-[[2-chloro-4-[2-(3,5-dichlorophenyl)-2-(trifluoromethyl)-3H-furan-4-yl]phenyl]methyl]acetamide]
≥ 80%: Heliothis virescens | Tetranychus urticae | Spodoptera littoralis

CC1CCCCC1C(=O)NCc1ccc(C2=COC(c3cc(Cl)cc(Cl)c3)(C(F)(F)F)C2)cc1Cl (stereo not shown) [Compound A11, N-[[2-chloro-4-[2-(3,5-dichlorophenyl)-2-(trifluoromethyl)-3H-furan-4-yl]phenyl]methyl]-2-methyl-cyclohexanecarboxamide]
≥ 80%: Heliothis virescens | Tetranychus urticae | Plutella xylostella

O=C(NCc1ccc(C2=COC(c3cc(Cl)cc(Cl)c3)(C(F)(F)F)C2)cc1Cl)c1cccc(F)c1F (stereo not shown) [Compound A20, N-[[2-chloro-4-[2-(3,5-dichlorophenyl)-2-(trifluoromethyl)-3H-furan-4-yl]phenyl]methyl]-2,3-difluoro-benzamide]
not listed: Tetranychus urticae
≥ 80%: all other assays above

Cn1nc(C(=O)NCc2ccc(C3=COC(c4cc(Cl)cc(Cl)c4)(C(F)(F)F)C3)cc2Cl)sc1=O (stereo not shown) [Compound A50, N-[[2-chloro-4-[2-(3,5-dichlorophenyl)-2-(trifluoromethyl)-3H-furan-4-yl]phenyl]methyl]-4-methyl-5-oxo-1,3,4-thiadiazole-2-carboxamide]
not listed: Tetranychus urticae
≥ 80%: all other assays above

CCC(=O)NCc1ccc(C2=COC(c3cc(Cl)cc(Cl)c3)(C(F)(F)F)C2)cc1Cl (stereo not shown) [Compound A05, N-[[2-chloro-4-[2-(3,5-dichlorophenyl)-2-(trifluoromethyl)-3H-furan-4-yl]phenyl]methyl]propanamide]
≥ 80%: all assays above

O=C(NCc1ccc(C2=COC(c3cc(Cl)cc(Cl)c3)(C(F)(F)F)C2)cc1Cl)C1CC1 (stereo not shown) [Compound A2, N-[[2-chloro-4-[2-(3,5-dichlorophenyl)-2-(trifluoromethyl)-3H-furan-4-yl]phenyl]methyl]cyclopropanecarboxamide]
≥ 80%: all assays above

Cc1cc2ncc(C(=O)NCc3ccc(C4=COC(c5cc(Cl)cc(Cl)c5)(C(F)(F)F)C4)cc3Cl)c(C)n2n1 (stereo not shown) [Compound A40, N-[[2-chloro-4-[2-(3,5-dichlorophenyl)-2-(trifluoromethyl)-3H-furan-4-yl]phenyl]methyl]-2,7-dimethyl-pyrazolo[1,5-a]pyrimidine-6-carboxamide]
≥ 80%: Heliothis virescens | Tetranychus urticae | Plutella xylostella

CSCC(=O)NCc1ccc(C2=COC(c3cc(Cl)cc(Cl)c3)(C(F)(F)F)C2)cc1Cl (stereo not shown) [Compound A1, N-[[2-chloro-4-[2-(3,5-dichlorophenyl)-2-(trifluoromethyl)-3H-furan-4-yl]phenyl]methyl]-2-methylsulfanyl-acetamide]
≥ 80%: all assays above

O=C(CC(F)(F)F)NCc1ccc(C2=COC(c3cc(Cl)cc(Cl)c3)(C(F)(F)F)C2)cc1Cl (stereo not shown) [Compound A48, N-[[2-chloro-4-[2-(3,5-dichlorophenyl)-2-(trifluoromethyl)-3H-furan-4-yl]phenyl]methyl]-3,3,3-trifluoro-propanamide]
≥ 80%: all assays above

CCC(Cl)C(=O)NCc1ccc(C2=COC(c3cc(Cl)cc(Cl)c3)(C(F)(F)F)C2)cc1Cl (stereo not shown) [Compound A47, 2-chloro-N-[[2-chloro-4-[2-(3,5-dichlorophenyl)-2-(trifluoromethyl)-3H-furan-4-yl]phenyl]methyl]butanamide]
not listed: Tetranychus urticae
≥ 80%: all other assays above

CC(C)C(=O)NCc1ccc(C2=COC(c3cc(Cl)cc(Cl)c3)(C(F)(F)F)C2)cc1Cl (stereo not shown) [Compound A46, N-[[2-chloro-4-[2-(3,5-dichlorophenyl)-2-(trifluoromethyl)-3H-furan-4-yl]phenyl]methyl]-2-methyl-propanamide]
≥ 80%: all assays above

COc1ccc(C(=O)NCc2ccc(C3=COC(c4cc(Cl)cc(Cl)c4)(C(F)(F)F)C3)cc2Cl)cc1 (stereo not shown) [Compound A26, N-[[2-chloro-4-[2-(3,5-dichlorophenyl)-2-(trifluoromethyl)-3H-furan-4-yl]phenyl]methyl]-4-methoxy-benzamide]
not listed: Tetranychus urticae
≥ 80%: all other assays above

O=C(Cc1cccs1)NCc1ccc(C2=COC(c3cc(Cl)cc(Cl)c3)(C(F)(F)F)C2)cc1Cl (stereo not shown) [Compound A18, N-[[2-chloro-4-[2-(3,5-dichlorophenyl)-2-(trifluoromethyl)-3H-furan-4-yl]phenyl]methyl]-2-(2-thienyl)acetamide]
not listed: Diabrotica balteata
≥ 80%: all other assays above

O=C(Cc1ccccc1)NCc1ccc(C2=COC(c3cc(Cl)cc(Cl)c3)(C(F)(F)F)C2)cc1Cl (stereo not shown) [Compound A14, N-[[2-chloro-4-[2-(3,5-dichlorophenyl)-2-(trifluoromethyl)-3H-furan-4-yl]phenyl]methyl]-2-phenyl-acetamide]
not listed: Diabrotica balteata
≥ 80%: all other assays above

O=C(COc1ccccc1)NCc1ccc(C2=COC(c3cc(Cl)cc(Cl)c3)(C(F)(F)F)C2)cc1Cl (stereo not shown) [Compound A19, N-[[2-chloro-4-[2-(3,5-dichlorophenyl)-2-(trifluoromethyl)-3H-furan-4-yl]phenyl]methyl]-2-phenoxy-acetamide]
not listed: Spodoptera littoralis
≥ 80%: all other assays above

O=C(NCc1ccc(C2=COC(c3cc(Cl)cc(Cl)c3)(C(F)(F)F)C2)cc1Cl)c1cccs1 (stereo not shown) [Compound A44, N-[[2-chloro-4-[2-(3,5-dichlorophenyl)-2-(trifluoromethyl)-3H-furan-4-yl]phenyl]methyl]thiophene-2-carboxamide]
not listed: Tetranychus urticae
≥ 80%: all other assays above
